Results: US20160318987A1 (MEDIMMUNE LIMITED, priority 2013, published 2016)
Where a SMILES comes first, the peptide text is derived from it. [ ]: non-standard residue; d: D form. αMeF = C[C@](N)(Cc1ccccc1)C(=O)O; Aib = CC(C)(N)C(=O)O

Legend:
Assay type in all cases: cell-based
Settings in all cases: n = 2
hGluc-R = biological target: T1, hGluc-R (Homo sapiens, UniProt P47871); assay: cAMP functional assay, cells expressing human glucagon receptor (primary assay)
T1 construct: expressed in transfected cells
T1 sequence (P47871 26-477): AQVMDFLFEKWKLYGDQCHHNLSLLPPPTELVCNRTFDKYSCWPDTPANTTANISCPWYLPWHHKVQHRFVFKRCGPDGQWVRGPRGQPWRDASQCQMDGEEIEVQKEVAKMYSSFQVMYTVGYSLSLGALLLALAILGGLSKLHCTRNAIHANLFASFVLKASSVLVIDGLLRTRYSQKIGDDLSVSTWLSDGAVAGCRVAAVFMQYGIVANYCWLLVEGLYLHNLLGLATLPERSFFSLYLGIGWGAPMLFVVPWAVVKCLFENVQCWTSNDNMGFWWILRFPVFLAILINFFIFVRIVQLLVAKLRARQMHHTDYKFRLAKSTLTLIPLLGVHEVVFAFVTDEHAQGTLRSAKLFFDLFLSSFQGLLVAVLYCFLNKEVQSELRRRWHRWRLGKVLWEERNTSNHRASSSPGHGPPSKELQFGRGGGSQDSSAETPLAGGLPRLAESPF
Protocol: The biological activities/receptor potencies of the synthetic GLP-1 peptides described herein are suitably tested for biological activity, e.g., stimulation of one or more cellular receptor responses. Stable cell lines expressing human, mouse, rat, or dog GLP-1 receptor (GLP-1R), glucagon receptor (GCGR) or glucose-dependent insulinotropic peptide (gastric inhibitory polypeptide) receptor (GIPR) are generated in HEK293 cells or CHO cells by standard methods.
cAMP assays were performed using “assay buffer”: Assay Buffer: 0.1% BSA (Sigma #A3059) in HBSS (Sigma #H8264) with 25 mM HEPES, pH 7.4 and containing 0.5 mM IBMX (Sigma #17018).
Low protein binding 384-well plates (Greiner #781280) are used to perform eleven 1 in 5 serial dilutions of test samples which are made in assay buffer. All sample dilutions are made in duplicate.
A frozen cryo-vial of cells expressing the receptor of interest is thawed rapidly in a water-bath, transferred to pre-warmed assay buffer and spun at 240× g for 5 minutes. Cells are re-suspended in assay buffer at a batch-dependent optimized concentration (e.g. hGCGR cells at 2×10^5 cells/ml, hGLP-1R and hGIPR cells at 1×10^5 cells /ml).
From the dilution plate, a 5 μL replica is stamped onto a black shallow-well u-bottom 384-well plate (Corning #3676). To this, 5 μL cell suspension is added and the plates incubated at room temperature for 30 minutes.
cAMP levels are measured using a commercially available cAMP dynamic 2 HTRF kit (Cisbio, Cat #62AM4PEJ), following the two step protocol as per manufacturer's recommendations. In brief; anti-cAMP cryptate (donor fluorophore) and cAMP-d2 (acceptor fluorophore) are made up separately by diluting each 1/20 in conjugate & lysis buffer provided in the kit. 5 μL anti-cAMP cryptate is added to all wells of the assay plate, and 5 μL cAMP-d2 is added to all wells except non-specific binding (NSB) wells, to which conjugate and lysis buffer are added. Plates are incubated at room temperature for one hour and then read on an Envision (Perkin Elmer) using excitation wavelength of 320 nm and emission wavelengths of 620 nm & 665 nm. EC50 values of the synthetic peptides determined in cAMP assays are then determined.

hGLP-1R = biological target: T2, hGLP-1R (Homo sapiens, UniProt P43220); assay: cAMP functional assay, cells expressing human GLP-1 receptor (primary assay)
T2 construct: expressed in transfected cells
T2 sequence (P43220 24-463): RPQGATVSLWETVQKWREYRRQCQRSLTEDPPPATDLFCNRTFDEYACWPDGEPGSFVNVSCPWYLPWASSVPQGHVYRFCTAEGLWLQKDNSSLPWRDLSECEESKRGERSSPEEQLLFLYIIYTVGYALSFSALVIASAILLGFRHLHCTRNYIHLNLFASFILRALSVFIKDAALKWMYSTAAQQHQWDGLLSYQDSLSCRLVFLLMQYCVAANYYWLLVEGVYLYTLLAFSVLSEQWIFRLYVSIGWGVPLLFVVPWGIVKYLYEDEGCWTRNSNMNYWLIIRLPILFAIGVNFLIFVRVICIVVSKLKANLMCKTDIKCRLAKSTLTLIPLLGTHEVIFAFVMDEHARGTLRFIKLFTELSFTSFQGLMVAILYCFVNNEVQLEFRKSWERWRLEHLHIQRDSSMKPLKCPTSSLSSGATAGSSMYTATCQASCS

hGIP-R = biological target: T3, hGIP-R (Homo sapiens, UniProt P48546); assay: cAMP functional assay, cells expressing human GIP receptor (primary assay)
T3 construct: expressed in transfected cells
T3 sequence (P48546 22-466): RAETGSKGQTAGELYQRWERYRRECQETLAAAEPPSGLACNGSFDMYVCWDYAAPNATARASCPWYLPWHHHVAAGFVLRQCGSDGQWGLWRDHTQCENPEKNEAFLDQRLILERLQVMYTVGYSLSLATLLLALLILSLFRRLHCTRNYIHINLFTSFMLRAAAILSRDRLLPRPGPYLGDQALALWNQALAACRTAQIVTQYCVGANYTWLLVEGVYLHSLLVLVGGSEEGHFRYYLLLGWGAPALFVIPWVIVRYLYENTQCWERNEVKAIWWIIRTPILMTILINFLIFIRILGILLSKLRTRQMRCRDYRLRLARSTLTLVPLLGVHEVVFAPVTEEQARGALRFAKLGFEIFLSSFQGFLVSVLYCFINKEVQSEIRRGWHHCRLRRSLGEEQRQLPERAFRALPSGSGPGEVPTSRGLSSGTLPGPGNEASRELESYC

Row | Structure (SMILES) | EC50 (hGluc-R) [nM] | EC50 (hGLP-1R) [nM] | EC50 (hGIP-R) [nM]
1 | CC[C@H](C)[C@H](NC(=O)[C@H](Cc1ccccc1)NC(=O)[C@H](CCC(=O)O)NC(=O)[C@H](CCCCN)NC(=O)[C@H](C)NC(=O)[C@H](C)NC(=O)[C@H](CCC(N)=O)NC(=O)CNC(=O)[C@H](CCC(=O)O)NC(=O)[C@H](CC(C)C)NC(=O)[C@H](Cc1ccc(O)cc1)NC(=O)[C@H](CO)NC(=O)[C@H](CO)NC(=O)[C@@H](NC(=O)[C@H](CC(=O)O)NC(=O)[C@H](CO)NC(=O)[C@@H](NC(=O)C(C)(C)NC(=O)[C@@H](NC(=O)CNC(=O)[C@H](CCC(=O)O)NC(=O)C(C)(C)NC(=O)[C@@H](N)Cc1c[nH]cn1)[C@@H](C)O)[C@@H](C)O)C(C)C)C(=O)N[C@@H](C)C(=O)N[C@@H](Cc1c[nH]c2ccccc12)C(=O)N[C@@H](CC(C)C)C(=O)N[C@H](C(=O)N[C@@H](CCCCN)C(=O)NCC(=O)N[C@@H](CCCNC(=N)N)C(N)=O)C(C)C [SEQ ID NO: 7, H-(Aib)^2-EGT^5-(Aib)^6-TSDV^10 SSYLE^15 GQAAK^20 EFIAW^25 LVKGR^30] | 151 | 0.0728 | 151
2 | CC[C@H](C)[C@H](NC(=O)[C@H](Cc1ccccc1)NC(=O)[C@H](CCC(=O)O)NC(=O)[C@H](CCCCN)NC(=O)[C@H](C)NC(=O)[C@H](C)NC(=O)[C@H](CCC(N)=O)NC(=O)CNC(=O)[C@H](CCC(=O)O)NC(=O)[C@H](CC(C)C)NC(=O)[C@](C)(Cc1ccc(O)cc1)NC(=O)[C@H](CO)NC(=O)[C@H](CO)NC(=O)[C@@H](NC(=O)[C@H](CC(=O)O)NC(=O)[C@H](CO)NC(=O)[C@@H](NC(=O)[C@H](Cc1ccccc1)NC(=O)[C@@H](NC(=O)CNC(=O)[C@H](CCC(=O)O)NC(=O)C(C)(C)NC(=O)[C@@H](N)Cc1c[nH]cn1)[C@@H](C)O)[C@@H](C)O)C(C)C)C(=O)N[C@@H](C)C(=O)N[C@@H](Cc1c[nH]c2ccccc12)C(=O)N[C@@H](CC(C)C)C(=O)N[C@H](C(=O)N[C@@H](CCCCN)C(=O)NCC(=O)N[C@@H](CCCNC(=N)N)C(N)=O)C(C)C [SEQ ID NO: 8, H-(Aib)^2-EGT^5 FTSDV^10 SS-(α-MeY)^13-LE^15 GQAAK^20 EFIAW^25 LVKGR^30] | 156 | 0.0229 | 156
3 | CC[C@H](C)[C@H](NC(=O)[C@H](Cc1ccccc1)NC(=O)[C@H](CCC(=O)O)NC(=O)[C@H](CCCCN)NC(=O)[C@H](C)NC(=O)[C@H](C)NC(=O)[C@H](CCC(N)=O)NC(=O)CNC(=O)[C@H](CCC(=O)O)NC(=O)[C@H](CC(C)C)NC(=O)[C@](C)(Cc1ccccc1)NC(=O)[C@H](CO)NC(=O)[C@H](CO)NC(=O)[C@@H](NC(=O)[C@H](CC(=O)O)NC(=O)[C@H](CO)NC(=O)[C@@H](NC(=O)[C@H](Cc1ccccc1)NC(=O)[C@@H](NC(=O)CNC(=O)[C@H](CCC(=O)O)NC(=O)C(C)(C)NC(=O)[C@@H](N)Cc1c[nH]cn1)[C@@H](C)O)[C@@H](C)O)C(C)C)C(=O)N[C@@H](C)C(=O)N[C@@H](Cc1c[nH]c2ccccc12)C(=O)N[C@@H](CC(C)C)C(=O)N[C@H](C(=O)N[C@@H](CCCCN)C(=O)NCC(=O)N[C@@H](CCCNC(=N)N)C(N)=O)C(C)C [SEQ ID NO: 9, H-(Aib)^2-EGT^5 FTSDV^10 SS-(α-MeF)^13-LE^15 GQAAK^20 EFIAW^25 LVKGR^30] (H-H[Aib]EGTFTSDVSS[αMeF]LEGQAAKEFIAWLVKGR-NH2) | 141 | 0.0338 | 141
4 | CC[C@H](C)[C@H](NC(=O)[C@H](Cc1ccccc1)NC(=O)[C@H](CCC(=O)O)NC(=O)[C@H](CCCCN)NC(=O)[C@H](C)NC(=O)[C@H](C)NC(=O)[C@H](CCC(N)=O)NC(=O)CNC(=O)[C@H](CCC(=O)O)NC(=O)[C@H](CC(C)C)NC(=O)C(C)(C)NC(=O)[C@H](CO)NC(=O)[C@H](CO)NC(=O)[C@@H](NC(=O)[C@H](CC(=O)O)NC(=O)[C@H](CO)NC(=O)[C@@H](NC(=O)[C@H](Cc1ccccc1)NC(=O)[C@@H](NC(=O)CNC(=O)[C@H](CCC(=O)O)NC(=O)C(C)(C)NC(=O)[C@@H](N)Cc1c[nH]cn1)[C@@H](C)O)[C@@H](C)O)C(C)C)C(=O)N[C@@H](C)C(=O)N[C@@H](Cc1c[nH]c2ccccc12)C(=O)N[C@@H](CC(C)C)C(=O)N[C@H](C(=O)N[C@@H](CCCCN)C(=O)NCC(=O)N[C@@H](CCCNC(=N)N)C(N)=O)C(C)C [SEQ ID NO: 10, H-(Aib)^2-EGT^5 FTSDV^10 SS-(Aib)^13-LE^15 GQAAK^20 EFIAW^25 LVKGR^30] (H-H[Aib]EGTFTSDVSS[Aib]LEGQAAKEFIAWLVKGR-NH2) | 131 | 0.0437 | 131
5 | CC[C@H](C)[C@H](NC(=O)[C@](C)(Cc1ccccc1)NC(=O)[C@H](CCC(=O)O)NC(=O)[C@H](CCCCN)NC(=O)[C@H](C)NC(=O)[C@H](C)NC(=O)[C@H](CCC(N)=O)NC(=O)CNC(=O)[C@H](CCC(=O)O)NC(=O)[C@H](CC(C)C)NC(=O)[C@H](Cc1ccc(O)cc1)NC(=O)[C@H](CO)NC(=O)[C@H](CO)NC(=O)[C@@H](NC(=O)[C@H](CC(=O)O)NC(=O)[C@H](CO)NC(=O)[C@@H](NC(=O)[C@H](Cc1ccccc1)NC(=O)[C@@H](NC(=O)CNC(=O)[C@H](CCC(=O)O)NC(=O)C(C)(C)NC(=O)[C@@H](N)Cc1c[nH]cn1)[C@@H](C)O)[C@@H](C)O)C(C)C)C(=O)N[C@@H](C)C(=O)N[C@@H](Cc1c[nH]c2ccccc12)C(=O)N[C@@H](CC(C)C)C(=O)N[C@H](C(=O)N[C@@H](CCCCN)C(=O)NCC(=O)N[C@@H](CCCNC(=N)N)C(N)=O)C(C)C [SEQ ID NO: 11, H-(Aib)^2-EGT^5 FTSDV^10 SSYLE^15 GQAAK^20 E-(α-MeF)^22IAW^25 LVKGR^30] | 153 | 0.0547 | 153
6 | CC[C@H](C)[C@H](NC(=O)C(C)(C)NC(=O)[C@H](CCC(=O)O)NC(=O)[C@H](CCCCN)NC(=O)[C@H](C)NC(=O)[C@H](C)NC(=O)[C@H](CCC(N)=O)NC(=O)CNC(=O)[C@H](CCC(=O)O)NC(=O)[C@H](CC(C)C)NC(=O)[C@H](Cc1ccc(O)cc1)NC(=O)[C@H](CO)NC(=O)[C@H](CO)NC(=O)[C@@H](NC(=O)[C@H](CC(=O)O)NC(=O)[C@H](CO)NC(=O)[C@@H](NC(=O)[C@H](Cc1ccccc1)NC(=O)[C@@H](NC(=O)CNC(=O)[C@H](CCC(=O)O)NC(=O)C(C)(C)NC(=O)[C@@H](N)Cc1c[nH]cn1)[C@@H](C)O)[C@@H](C)O)C(C)C)C(=O)N[C@@H](C)C(=O)N[C@@H](Cc1c[nH]c2ccccc12)C(=O)N[C@@H](CC(C)C)C(=O)N[C@H](C(=O)N[C@@H](CCCCN)C(=O)NCC(=O)N[C@@H](CCCNC(=N)N)C(N)=O)C(C)C [SEQ ID NO: 12, H-(Aib)^2-EGT^5 FTSDV^10 SSYLE^15 GQAAK^20 E-(Aib)^22IAW^25 LVKGR^30] (H-H[Aib]EGTFTSDVSSYLEGQAAKE[Aib]IAWLVKGR-NH2) | 147 | 2.58 | 147
7 | CC[C@H](C)[C@H](NC(=O)[C@H](Cc1ccccc1)NC(=O)[C@H](CCC(=O)O)NC(=O)[C@H](CCCCN)NC(=O)[C@H](C)NC(=O)[C@H](C)NC(=O)[C@H](CCC(N)=O)NC(=O)CNC(=O)[C@H](CCC(=O)O)NC(=O)[C@H](CC(C)C)NC(=O)[C@H](Cc1ccc(O)cc1)NC(=O)[C@H](CO)NC(=O)[C@H](CO)NC(=O)[C@@H](NC(=O)[C@H](CC(=O)O)NC(=O)[C@H](CO)NC(=O)[C@@H](NC(=O)[C@H](Cc1ccccc1)NC(=O)[C@@H](NC(=O)CNC(=O)[C@H](CCC(=O)O)NC(=O)C(C)(C)NC(=O)[C@@H](N)Cc1c[nH]cn1)[C@@H](C)O)[C@@H](C)O)C(C)C)C(=O)N[C@@H](C)C(=O)N[C@@](C)(Cc1c[nH]c2ccccc12)C(=O)N[C@@H](CC(C)C)C(=O)N[C@H](C(=O)N[C@@H](CCCCN)C(=O)NCC(=O)N[C@@H](CCCNC(=N)N)C(N)=O)C(C)C [SEQ ID NO: 13, H-(Aib)^2-EGT^5 FTSDV^10 SSYLE^15 GQAAK^20 EFIA-(α-MeW)^25 LVKGR^30] | 164 | 0.026 | 164
